US6946458B2, “N-thiolated beta-lactams: novel antibacterial agents for methicillin-resistant Staphylococcus aureus” (University of South Florida, priority 1999, dated 2005)

What was measured:
Format in all cases: cell-based, Staphylococcus aureus
[1] = test system: Staphylococcus strains including MRSA; assay: antibacterial activity screening, results stated in words
From the text: However, the N-alkylthio substituent is required, since reduction to the N—H analogue completely destroys the biological activity. […]
(§1) Of particular interest is the ability of these compounds to retain their effectiveness against penicillin-resistant strains of Staphylococcus aureus, a dangerous hospital-borne pathogen which is becoming difficult to treat with conventional antibiotic therapy. The lactams were screened for antibacterial activity by disk diffusion on agar plates, and the resulting zones of bacterial growth inhibition measured (see Table 3; each lactam is designated by Figure number).
With the lactam of FIG. 6A serving as a lead structure, other C4-unsaturated derivatives (FIGS. 6B-6E) and C4-saturated analogues (FIGS. 6F-6H), were examined all of which also have activity against Staphylococcus strains including MRSA.
(§2) Scheme I summarizes the synthesis of ester compounds 4. 4-Carboxy benzaldehyde (1) is coupled with the appropriate alcohol using DCC/DMAP, followed by reaction with p-anisidine, to give imines 2. Staudinger coupling of methoxyacetyl chloride with imine 2 gives N-aryl protected β-lactam 3. N-Dearylation of β-lactam 3 with ceric ammonium nitrate and methylthiolation with N-(methylthio)phthalimide affords N-methylthio β-lactams 4. These compounds are tested for antibacterial activity by the Kirby-Bauer method of disc diffusion on agar plates. [drawing 7]

MRSA USF652 = assay: Kirby-Bauer agar disk diffusion; set-up: Kirby-Bauer Disc Diffusion Test Results: unit not given here; conditions: for Kirby-Bauer Disc Diffusion Test Results: Table 5, beta-lactamase producing strain
Experimental: (§3) In this study, a selection of N-methylthio-substituted β-lactams are examined for antimicrobial activity by the Kirby-Bauer disk diffusion method on agar plates. A variety of common Gram-positive and Gram-negative bacteria are tested, including clinical isolates of methicillin-resistant Staphylococcus aureus (MRSA).
(§4) Compound susceptibility measurements are obtained from agar disk diffusion experiments using 6-mm air-dried disks impregnated with 20 μg of the test compound. The values correspond to the average diameters in mm (triplicate experiments) for the zone of growth inhibition observed after 24 h. Staphylococcus aureus (ATCC 25923) and β-lactamase-producing strains of methicillin-resistant Staphylococcus aureus (labeled as MRSA USF652-659) are obtained from Lakeland Regional Medical Center, Lakeland, Fla. Staphylococcus epidermidis, Staphylococcus simulans, Staphylococcus simulans, and Microcossus luteus are clinical isolates from University of South Florida Medical Clinic. Nieserria gonnorhoeae (β-lactamase positive) is obtained from the Tampa Branch State Laboratory. PenG is penicillin G (potassium salt). Table 1 provides the zones of growth inhibition that are observed after 24 hours using the lactams of FIGS. 1A-1I (designated A-I, respectively).
as §1
(§5) Table 3: Growth inhibition zones obtained from agar disk diffusion experiments using 6-mm air-dried disks impregnated with 20 μg of the test compound. The values correspond to the average diameters in mm for the zone of growth inhibition observed after 24 hours. Staphylococcus aureus and β-lactamase-producing strains of methicillin-resistant Staphylococcus aureus (labeled MRSA USF652-659) are obtained from a clinical testing laboratory at Lakeland Regional Medical Center, Lakeland, Fla.
(§6) Those compounds were tested for bioactivity using the Kirby-Bauer test on agar plates.
(§7) Biological activity is enhanced against β-lactamase producing strains of methicillin-resistant Staphylococcus aureus (MRSA). With the lactam shown in FIG. 11A serving as a lead structure, a series of other C-4 substituted derivatives (FIGS. 11B-11I) were investigated herein. Table 5 lists microbiological data for β-lactams from Kirby-Bauer Disc Diffusion Test Results (with each lactam identified by Figure number).
as §2

MRSA USF653 = assay: Kirby-Bauer agar disk diffusion; set-up: Kirby-Bauer Disc Diffusion Test Results: unit not given here; conditions: for Kirby-Bauer Disc Diffusion Test Results: Table 5, beta-lactamase producing strain
Experimental: as §3, §4, §1, §5, §6, §7, §2

MRSA USF654 = assay: Kirby-Bauer agar disk diffusion; set-up: Kirby-Bauer Disc Diffusion Test Results: unit not given here; conditions: for Kirby-Bauer Disc Diffusion Test Results: Table 5, beta-lactamase producing strain
Experimental: as §3, §4, §1, §5, §6, §7, §2

MRSA USF655 = assay: Kirby-Bauer agar disk diffusion; set-up: Kirby-Bauer Disc Diffusion Test Results: unit not given here; conditions: for Kirby-Bauer Disc Diffusion Test Results: Table 5
Experimental: as §3, §4, §1, §5, §6, §7, §2

MRSA USF656 = assay: Kirby-Bauer agar disk diffusion; set-up: Kirby-Bauer Disc Diffusion Test Results: unit not given here; conditions: for Kirby-Bauer Disc Diffusion Test Results: Table 5, beta-lactamase producing strain
Experimental: as §3, §4, §1, §5, §6, §7, §2

MRSA USF657 = assay: Kirby-Bauer agar disk diffusion; set-up: Kirby-Bauer Disc Diffusion Test Results: unit not given here; conditions: for Kirby-Bauer Disc Diffusion Test Results: Table 5, beta-lactamase producing strain
Experimental: as §3, §4, §1, §5, §6, §7, §2

MRSA USF658 = assay: Kirby-Bauer agar disk diffusion; set-up: Kirby-Bauer Disc Diffusion Test Results: unit not given here; conditions: for Kirby-Bauer Disc Diffusion Test Results: Table 5, beta-lactamase producing strain
Experimental: as §3, §4, §1, §5, §6, §7, §2

MRSA USF659 = assay: Kirby-Bauer agar disk diffusion; set-up: Kirby-Bauer Disc Diffusion Test Results: unit not given here; conditions: for Kirby-Bauer Disc Diffusion Test Results: Table 5, beta-lactamase producing strain
Experimental: as §3, §4, §1, §5, §6, §7, §2

Staph aureus 525 = assay: Kirby-Bauer agar disk diffusion; conditions: for Kirby-Bauer Disc Diffusion Test Results: Table 5

| SMILES | antibacterial activity, in words ([1]; Example 3 SAR) | Kirby-Bauer Disc Diffusion Test Results (MRSA USF652) | Kirby-Bauer Disc Diffusion Test Results (MRSA USF653) | Kirby-Bauer Disc Diffusion Test Results (MRSA USF654) | Kirby-Bauer Disc Diffusion Test Results (MRSA USF655) | Kirby-Bauer Disc Diffusion Test Results (MRSA USF656) | Kirby-Bauer Disc Diffusion Test Results (MRSA USF657) | Kirby-Bauer Disc Diffusion Test Results (MRSA USF658) | Kirby-Bauer Disc Diffusion Test Results (MRSA USF659) | Kirby-Bauer Disc Diffusion Test Results (Staph aureus 525) | other results |
| --- | --- | --- | --- | --- | --- | --- | --- | --- | --- | --- | --- |
| CCCCCCCCCCOC(=O)c1ccc(C2C(OC)C(=O)N2SC)cc1 (racemic) [FIG. 8E] | totally devoid of activity | – | – | – | – | – | – | – | – | – | – |
| COC1C(=O)N(SC)C1C(C#Cc1ccccc1)OC(C)=O (mixture of isomers) [FIG. 6I] | devoid of activity | – | – | – | – | – | – | – | – | – | – |
| CCSN1C(=O)C(OC)C1c1ccccc1Cl (racemic) [Ethylthio] | – | – | – | – | – | – | – | – | – | – | Zones of Inhibition (MRSA USF652; Table 4, 20 μg disk loading): 33 mm; Zones of Inhibition (MRSA USF653; Table 4, 20 μg disk loading): 33 mm; Zones of Inhibition (MRSA USF654; Table 4, 20 μg disk loading): 27 mm; Zones of Inhibition (MRSA USF655; Table 4, 20 μg disk loading): 28 mm; Zones of Inhibition (MRSA USF656; Table 4, 20 μg disk loading): 29 mm; Zones of Inhibition (MRSA USF657; Table 4, 20 μg disk loading): 29 mm; Zones of Inhibition (MRSA USF658; Table 4, 20 μg disk loading): 30 mm; Zones of Inhibition (MRSA USF659; Table 4, 20 μg disk loading): 30 mm; Zones of Inhibition (Staph aureus 525; Table 4, 20 μg disk loading): 26 mm |
| COC1C(=O)N(SC)C1c1cccs1 (racemic) [FIG. 11E] | – | 28 | 28 | 27 | 29 | 28 | 26 | 26 | 24 | 27 | – |
| COC1C(=O)N(SC)C1c1c(Cl)cccc1Cl (racemic) [FIG. 11I] | – | 24 | 26 | 21 | 20 | 22 | 20 | 20 | 17 | 24 | – |
| COC1C(=O)N(SC)C1C#Cc1ccccc1 (racemic) [FIG. 11A] | – | 29 | 29 | 27 | 27 | 30 | 28 | 27 | 24 | 27 | – |
| CCCCCOC(=O)c1ccc(C2C(OC)C(=O)N2SC)cc1 (racemic) [FIG. 8C] | activity is maintained | – | – | – | – | – | – | – | – | – | – |
| CCOC(=O)c1ccc(C2C(OC)C(=O)N2SC)cc1 (racemic) [4b] | – | – | – | – | – | – | – | – | – | – | The Zone of Inhibition (MRSA USF652; Table 6, 20 μg disk loading): 17 mm; The Zone of Inhibition (MRSA USF653; Table 6, 20 μg disk loading): 14 mm; The Zone of Inhibition (MRSA USF654; Table 6, 20 μg disk loading): 9 mm; The Zone of Inhibition (MRSA USF655; Table 6, 20 μg disk loading): 12 mm; The Zone of Inhibition (MRSA USF656; Table 6, 20 μg disk loading): 11 mm; The Zone of Inhibition (MRSA USF657; Table 6, 20 μg disk loading): 14 mm; The Zone of Inhibition (MRSA USF658; Table 6, 20 μg disk loading): 11 mm; The Zone of Inhibition (MRSA USF659; Table 6, 20 μg disk loading): 13 mm; antibacterial activity, in words ([1]; Example 6, MRSA strains of Table 6): about similar activity |
| COC1C(=O)N(SC)C1c1cccc(Cl)c1 (racemic) [FIG. 11G] | – | 26 | 28 | 21 | 23 | 26 | 25 | 22 | 15 | 24 | – |
| CCCCCCCOC(=O)c1ccc(C2C(OC)C(=O)N2SC)cc1 (racemic) [FIG. 8D] | about half the activity of the pentyl analogues | – | – | – | – | – | – | – | – | – | – |
